# Laboratory results published in publication PMC4985751, “Enhanced Cationic Charge is a Key Factor in Promoting Staphylocidal Activity of α-Melanocyte Stimulating Hormone via Selective Lipid Affinity” (Scientific Reports, 2016).
# Experiments:
# MRSA ATCC 33591 = assay: 2 h killing assay (colony count), MRSA; format: cell-based, Staphylococcus aureus; settings: 10 μM peptide, 37 °C, 10^6 CFU/mL MRSA ATCC 33591, 5 mM HEPES, 20 mM glucose, pH 7.4, mean ± S.D. of three independent experiments
# Protocol: (§1) To determine the antibacterial activity, cells (MSSA ATCC 29213 and MRSA ATCC 33591) from secondary culture mid-logarithmic phase were used. The cells were centrifuged, washed and re-suspended in buffer (5 mM HEPES, 20 mM glucose, pH 7.4). The re-suspended cells were adjusted to OD600 of 0.5 spectrophotometrically (~10^8 CFU/mL). Desired cell densities were then exposed to 10 μM concentration of α-MSH and other analogues and incubated at 37 °C for 2 h. After 2 h incubation, the cells were diluted in buffer and small aliquots were plated on BHI agar plates. The plates were incubated overnight at 37 °C. Survival was determined by counting of the colony forming unit (CFU/mL) on agar plate using the following formula[23]: […]
# [1] = system: B16 mouse melanoma cells stably expressing human melanocortin receptor MC1R; assay: Cyclic-AMP accumulation analysis; format: cell-based; settings: 600 nM, 1 μM and 10 μM peptide, 10 min
# Protocol: The intracellular cyclic-AMP analysis was performed according to a method described elsewhere, with slight modifications. Briefly, B16 mouse melanoma cells stably expressing human melanocortin receptor MC1R were grown to confluence in DMEM medium (Sigma-Aldrich, USA) containing 10% fetal calf serum (FCS) and 1x anti-anti (Gibco). The cells were seeded in 12-well plates 48 h before assay and grown to 10^5 cells/well. For the assay, the medium was removed and cells were washed with 1 mL of media. Then 1 mL DMEM media (without FCS) containing 100 μM 3-isobutyl-1-methylxanthine (IBMX) was added to each well and incubated for 30 min at 37 °C. The media was then discarded and various concentrations of α-MSH and KKK-MSH viz., 600 nM, 1 μM and 10 μM, in 1 mL fresh 25% DMEM media (without FCS) in PBS containing 100 μM IBMX were added to the appropriate wells and incubated for 10 min at 37 °C, 5% CO2. After 10 min the reaction was stopped by aspirating the media and washing the wells with 1 mL PBS. 200 μL 0.1 M hydrochloric acid was then added to each well and the wells were scrapped. The lysates were centrifuged at 600 rcf for 5 min and the supernatants were collected and diluted 1000 times in 0.1 M HCl and used for analysis of the total cyclic-AMP content using Enzyme Immunoassay Kit (Sigma-Aldrich, USA, CA200) according to the manufacturer’s instructions.
# MSSA ATCC 29213 [2] = assay: Membrane permeabilization, PI uptake by flow cytometry; format: cell-based, Staphylococcus aureus; settings: 10 μM peptide, 1 h, 37 °C, 10^5 CFU/mL in PBS pH 7.4; >10 a.u. counted positive; mean ± S.D. of three independent experiments
# Protocol: The propidium iodide (PI) uptake assay was performed to assess membrane permeabilization by flow cytometry according to a method described elsewhere[58]. MSSA ATCC 29213 cells were grown in BHI broth to mid-logarithmic phase and harvested by centrifugation at 4,000 rpm for 10 min. The cell pellet was washed once with PBS (10 mM sodium phosphate, 150 mM NaCl, pH 7.4) and was adjusted to 10^5 CFU/mL in PBS. The cells were incubated with PI (1.3 μg/mL) at 37 °C for 20 min in the dark. After incubating the cells with PI, cells were exposed to peptides (10 μM) at 37 °C. PI fluorescence was measured after 1 h incubation with excitation and emission wavelength of 544 nm and 620 nm, respectively, using Becton Dickinson (BD) FACS verse, San Jose, CA. The cells having more than 10 fluorescence unit (arbitrary) were considered to be stained with PI.
# MSSA ATCC 29213 [3] = format: cell-based, Staphylococcus aureus; settings: at 10.47 μM peptide; thereafter marginal increase up to 41.2 μM
# Protocol: The cytoplasmic membrane depolarization was measured using membrane potential sensitive cyanine dye DiSC3(5)[57]. Briefly, mid-logarithmic phase MSSA ATCC 29213 cells were washed and re-suspended in buffer (5 mM HEPES, 20 mM glucose, pH 7.2) to an OD600 of 0.05 which corresponds to ~10^7 CFU/mL. Cells were divided into aliquots and incubated with 2 μM of DiSC3(5) for 1 h to get steady baseline fluorescence intensity. The dye-loaded cells were treated with increasing peptide concentrations (2.1 μM, 10.47 μM, 20.83 μM and 41.23 μM). Fluorescence was monitored in a Shimadzu RF-5301 PC spectrofluorimeter at an excitation wavelength of 622 nm and an emission wavelength of 670 nm. The corresponding killing was measured by plating the aliquots onto BHI agar plate to obtain viable bacterial counts.
# [4] = RP-HPLC elution, % hydrophobicity; format: physicochemical; settings: chromatographic, C18 column
# Text: A balance between hydrophobicity and cationic charge has been reported to be crucial for the activity of many membrane active CAMPs[39][40][41]. […] For α-MSH it has been shown that the minimum energy conformation is a β-turn which is present in the middle of the sequence spanning the putative message region (residues 6–9)[42]. […] Although, acquisition of secondary structure in the vicinity of phospholipid bilayers has been reported to be crucial for activity, there are examples where no direct correlation between peptide structure acquisition ability and antibacterial activity was observed.
# [5] = Lipid binding by Trp fluorescence titration
# Protocol: Further, we evaluated the relative binding constants of α-MSH and KKK-MSH to bacterial mimic SUVs to understand if there are differences between lipid binding affinities of these two peptides. Towards this, we incubated a fixed concentration of peptide (12.5 μM) with increasing concentrations of bacterial mimic SUVs (DMPC:DMPG, 7:3, w/w) and concomitant changes in the intensity of emission maxima for Trp residue were recorded. Correction for light scattering was done by subtracting the corresponding spectra of the SUVs alone. […]
# Figure 7 Trp fluorescence studies to estimate binding of α-MSH and KKK-MSH to bacterial mimic SUVs. Increasing concentrations of DMPC:DMPG (7:3, w/w) SUVs in 10 mM TES buffer (pH 7.2) were titrated with fixed peptide concentration (12.5 μM) and the emission spectrum was recorded. […] The fluorescence spectrum was recorded at 25 °C by exciting samples at 295 nm and recording emission from 310 nm to 450 nm. […] Contributions from the buffer and SUVs were appropriately subtracted and volume corrected fluorescence values were used to calculate the fraction of bound peptide.
# Lipid binding was measured by titrating SUVs (DMPC:DMPG, 7:3, w/w) into 12.5 μM of the peptide by varying lipid to peptide ratio from 75.6 to 3.3. After each addition of lipid, emission spectrum was recorded between 310 to 450 nm using excitation at 295 nm with excitation and emission slit width of 3 nm. […]
# MSSA ATCC 29213 [6] = assay: 2 h killing assay (colony count), MSSA; format: cell-based, Staphylococcus aureus; settings: 10 μM peptide, 37 °C, 10^7 CFU/mL MSSA ATCC 29213, 5 mM HEPES, 20 mM glucose, pH 7.4, mean ± S.D. of three independent experiments
# Protocol: as §1
# [7] = system: 3T3 murine fibroblast cell line; format: cell-based, mouse
# Protocol: The cytotoxicity of α-MSH and analogues was tested against 3T3 murine fibroblast cell line using a protocol as described previously. The cell line was propagated at 37 °C in 5% CO2 to over 75% confluence in DMEM supplemented with 10% fetal bovine serum (FBS) and antibiotics and transferred (after treatment with trypsin) to each well of a 24-well plate to a final count of 0.2 × 10^5 cells/well for 24 h. After 24 h, media was aspirated and desired concentration of peptides (50 μM) dissolved in 25% (v/v) DMEM in PBS was added to each well (in triplicate). Triplicate wells without treatment were set as control and wells with 2% Triton X-100 were used as positive control. The plate was kept for 2 h, at 37 °C in 5% CO2 incubator. After 2 h, media was removed and the cells were washed once with 1 mL PBS. In dark, 1 mL MTT (working conc. 0.1 mg/mL) was added to each well and incubated for 2 h at 37 °C. After 2 h, the formazan crystals formed were dissolved in 200 μL of DMSO and kept for 5 min in the incubator. 150 μL of this mixture was transferred to a fresh 96-well plate and absorbance was measured spectrophotometrically at 570 nm. % cytotoxicity was calculated as [(OD570 of control-OD570 of sample)/(OD570 of control)] × 100. The assay was done in triplicate on three different days.
Substance,Reduction in initial cell count (MRSA ATCC 33591) [Log10 CFU/mL],"Cyclic-AMP levels compared to untreated control ([1]; 37 °C, 100 μM IBMX, enzyme immunoassay, p < 0.05)","Cyclic-AMP levels compared to α-MSH ([1]; comparable at higher, lower at lower concentration)",Cells retaining PI (PI positive cells) (MSSA ATCC 29213 [2]) [%],"Membrane depolarization, relative fluorescence intensity (RFI) of DiSC3(5) (MSSA ATCC 29213 [3])",% H (% hydrophobicity based on % of acetonitrile at RP-HPLC elution) [4] [%],"Binding constant to bacterial mimic SUVs ([5]; 12.5 μM peptide titrated with DMPC:DMPG (7:3, w/w) SUVs, L:P 75.6 to 3.3, 10 mM TES pH 7.2, 25 °C, hyperbolic fit, one site model)","Binding constant relative to α-MSH ([5]; DMPC:DMPG (7:3, w/w) SUVs, steady-state fluorescence)",Reduction in initial cell count (MSSA ATCC 29213 [6]) [Log10 CFU/mL],Cytotoxicity relative to growth control [7] [%]
Ac-KYKMKHFRWGKPV-NH2 [KKK-MSH],3.81 ± 0.33,dose-dependent elevation in cyclic-AMP,comparable or lower levels of cyclic-AMP,67.6 ± 3.4,appreciable increase in RFI,39.9,"15,402.74 M^−1",~ 18 fold,4.07 ± 0.92,–
Triton X-100,–,–,–,–,–,–,–,–,–,83
